Assay results as given in PubChem BioAssay (NCI).
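Growth conditions: 96-well plates. Treatment: test compound, 48 hours, 5 concentrations. Analysis: linear interpolation between bracketing concentrations; unreached endpoints set to highest concentration. GI50 = concentration required for 50% inhibition of growth. TGI: concentration producing complete growth inhibition.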

Assays:
Assay in all cases: DTP human tumour cell line panel, 48 h
HT29 colon = system: HT29 colon
RPMI-8226 leukemia = system: RPMI-8226 leukemia
MDA-N = system: MDA-N
SK-MEL-5 melanoma = system: SK-MEL-5 melanoma
SF-268 CNS = system: SF-268 CNS
OVCAR-4 ovarian = system: OVCAR-4 ovarian
SNB-75 CNS = system: SNB-75 CNS
UO-31 renal = system: UO-31 renal
U251 CNS = system: U251 CNS
TK-10 renal = system: TK-10 renal
UACC-257 melanoma = system: UACC-257 melanoma
EKVX NSCLC = system: EKVX NSCLC
CAKI-1 renal = system: CAKI-1 renal
786-0 renal = system: 786-0 renal
MDA-MB-435 = system: MDA-MB-435
OVCAR-5 ovarian = system: OVCAR-5 ovarian
IGROV1 ovarian = system: IGROV1 ovarian
RXF 393 renal = system: RXF 393 renal

SMILES	TGI (HT29 colon) [µM]	TGI (RPMI-8226 leukemia) [µM]	TGI (MDA-N) [µM]	TGI (SK-MEL-5 melanoma) [µM]	TGI (SF-268 CNS) [µM]	GI50 (OVCAR-4 ovarian) [µM]	TGI (OVCAR-4 ovarian) [µM]	GI50 (SNB-75 CNS) [µM]	TGI (SNB-75 CNS) [µM]	TGI (UO-31 renal) [µM]	TGI (U251 CNS) [µM]	TGI (TK-10 renal) [µM]	TGI (UACC-257 melanoma) [µM]	TGI (EKVX NSCLC) [µM]	TGI (CAKI-1 renal) [µM]	TGI (786-0 renal) [µM]	TGI (MDA-MB-435) [µM]	TGI (OVCAR-5 ovarian) [µM]	TGI (IGROV1 ovarian) [µM]	TGI (RXF 393 renal) [µM]
CC(=O)c1cccc(Nc2nc3ccc(Cl)cc3c3[nH]c4ccccc4c23)c1	48.5	> 100	> 100	17	36.9	3.56	21.5	2.04	8.16	41.9	14.7	25.8	> 88.2	14.9	> 36.7	11.3	> 100	61.6	> 48.6	
CN(C(=O)C1CCCCCC1=O)c1ccccc1Cl (stereo not given)	> 100	> 100		> 100	> 100		> 100		> 100	> 100	> 100	> 100	> 100	> 100	> 100	> 100	> 100	> 100	> 100	> 100
COc1cc([C@H]2CC(=O)C[C@H](c3cc(OC)c(OC)c(OC)c3)C23C(=O)c2ccccc2C3=O)cc(OC)c1OC	> 100	> 100		> 100	> 100					> 100	> 100	> 100	> 100	> 100	> 100	> 100	> 100	> 100	> 100	88.7
COc1ccc(/C=C2\N=C(SC)N(CN3CCCCC3)C2=O)cc1	> 100	> 100	> 100	> 100	> 100		> 100		> 100	> 100	> 100	> 100		> 100		> 100	> 100	> 100	> 100	
O=c1n(-c2ccccc2)c(=O)n2n1C1Cc3ccccc3C12 (stereo not given)	> 100	> 100	> 100	> 100	> 100				> 100	> 100	> 100	> 100	> 100	> 100	> 100	> 100	> 100	> 100	> 100	
Nc1ncnc2c1ncn2C1OC(CO)C(O)C(O)C1O (stereo not given)	> 100	> 100	> 100	> 100	> 100		> 100		> 100	> 100	> 100	> 100	> 100	> 100	> 100	> 100	> 100	> 100	> 100	
NC1CC(Cl)c2c(Cl)sc(Cl)c21 (stereo not given)	> 100		> 100	> 100	> 100		> 100		> 100	> 100	> 100	> 100	> 100	> 100	> 100	> 100	> 100	> 100	> 100	> 100
COCn1cnc2c(=O)n(-c3ccc(OC)cc3)c(=S)n(-c3ccc(OC)cc3)c21	> 100	> 100		> 100	> 100		> 100		> 100	> 100	> 100	> 100	> 100	> 100	> 100	> 100	> 100	> 100	> 100	> 100
NC(=O)C1Cc2cc3c(cc21)OCO3 (stereo not given)	> 100		> 100	> 100	> 100				> 100	> 100		> 100	> 100	> 100	> 100	> 100		> 100	> 100	> 100
COc1ccc(NC(=O)/C(=N/NC(N)=S)C2C(=O)NC(=S)NC2=O)c(OC)c1	> 100	> 100	> 100	> 100	> 100		> 100		> 100	> 100	> 100	> 100	> 100	> 100	> 100	> 100	> 100	> 100	> 100	
COc1ccc2c(c1)-c1[nH]c3ccc(OC)cc3c1CC2	24.9	48.2	30.2	30.9	28.1		29.4		26.9	31.4	39.2	31.5	32.4	20.8	34.8	34	40.2	28.6	26.8	
CN1C(=O)C(c2c[nH]c3ccccc23)N(C)C(=O)C1c1c[nH]c2ccccc12 (stereo not given)	> 100		> 100	> 100	> 100		> 100		88.2	> 100	> 100	> 100	> 100	> 100	> 100	> 100	> 100	> 100	> 100	> 100
CC(C)(C)OC(=O)N1CCC2(C)CC(=O)CC=C12 (stereo not given)	> 100		> 100	> 100	> 100		> 100		> 100	> 100	> 100	> 100	> 100	> 100	> 100	> 100	> 100	> 100	> 100	> 100
